Reference: patent US12685777B2, “Compositions, systems, and methods for modulating a target gene” (The Board of Trustees of the Leland Stanford Junior …, priority 2022, dated 2026)
Where two headings read alike, the source gives them in different places.

Key:
KARPAS422 = experiment: Cell viability (resazurin/PrestoBlue) of KARPAS422 DLBCL cells; format: cell-based, human
Protocol: (§1) 30,000 cells were plated in 100 μL media per well of a 96 well plate and treated with drug for indicated times and doses. A resazurin-based indicator of cell health (PrestoBlue, ThermoFisher #P50200) was added for 1.5 hours after which the fluorescence ratio at 560/590 nm was recorded. The background fluorescence was subtracted and the signal was normalized to DMSO-treated cells. EC50 measurements on cell lines were done with 4 biological repeats by separate cell passages maintained by 3 independent investigators. Fit of dose-response curves to data and statistical analysis was performed using drc package in R using the four-parameter log-logistic function.
These molecules were tested for their effect on viability of the chemotherapy (CHOP, or cyclophosphamide, hydroxydaunorubicin, Oncovin, and prednisone)-resistant DLBCL cell line, KARPAS422. […] Cell killing was essentially complete at 72 hours (FIG. 27, Panel D).

DLBCL cells = experiment: Killing of DLBCL cell lines (cell viability); format: cell-based
Protocol: as §1
It was noted that neither Bl3812 nor JQ1 produced complete loss of cell viability (FIG. 28, Panel A) leaving a resistant population of cells as has been previously reported.

[1] = molecular target: T1, bromodomain 1 of BRD4 and BTB domain of BCL6 (Homo sapiens, UniProt O60885+P41182, C67R/C84N/C8Q); experiment: TR-FRET assay of ternary complex formation; format: binding; conditions: 1 hr at room temperature, 520 nm/490 nm ratio
T1 construct: contains amino acids 5-129 with three mutations, C8Q, C67R, C84N
Protocol: Reaction was incubated for 1 hr at room temperature, and subsequently the fluorescence at 520 nm and 490 nm was measured. The 520 nm/490 nm ratio is plotted respective to DMSO control. The two lower curves are performed by addition of Neg1 and Neg2 instead of JWZ-7-7. […] The structure of JWZ-7-7 is provided in FIG. 2 and the structures of Neg1 and Neg2 are provided below:
Each reaction contained 100 nM BRD4^BD1, 100 nM BCL6BTB-Avi-Biot, 20 nM Streptavidin-FITC (Thermo #SA1001), and 1:400 anti-6×His terbium antibody (PerkinElmer #61H12TLF) in 10 μL of buffer containing 20 mM HEPES, 150 mM NaCl, 0.1% BSA, 0.1% NP-40, and 1 mM TCEP in a 384-well plate. Protein was incubated with drug digitally dispensed (Tecan D300e) for 1 hour in the dark at room temperature before excitation at 337 nm and measurement of emission at 520 nm (FITC) and 490 nm (terbium) with a PHERAstar FS plate reader (BMG Labtech). The ratio of signal at 520 nm to 490 nm was calculated and normalized to DMSO-treated conditions, and plotted.

[2] = system: gene expression in KARPAS422 cells; experiment: RNA-seq of drug-treated KARPAS422 cells; format: cell-based, human
Protocol: 12. RNA Extraction, qPCR, and Sequencing Library Preparation Cells were plated at 1 M/mL and harvested in TRIsure (Bioline #38033). RNA was extracted using Direct-zol RNA MicroPrep columns (Zymo #R^2062) treated with DNAseI. cDNA was prepared for RT-qPCR using the SensiFAST cDNA preparation kit according to manufacturer instructions (Bioline #65054). 1 μL of cDNA was used per RT-qPCR reaction prepared with SYBR Lo-ROX (Bioline #94020). For sequencing library preparation, polyA-containing transcripts were enriched for (NEB #E7490S) and prepared into paired-end libraries (NEB #E7760S). Libraries were sequenced on an Illumina NovaSeq (Novogene). 13. Western Blots
(www.bioinformatics.babraham.ac.uk/projects/fastqc/) and trimmed from adapters using cutadapt (Martin, M., EMBnet.journal (2011) 17: 10) using parameters cutadapt—a […] -b (SEQ ID NO:01) […] (SEQ ID NO:02) -nextseq-trim=20-minimum-length 1. Transcripts were quantified using kallisto (Bray et al., Nature Biotechnology (2016) 34: 525-527) against the human Gencode v33 indexed transcriptome and annotations. […] 15. ChIP-Seq Experiment and Library Preparation
(§2) Because a high percentage of the TCIP1-treated cells contain fragmented DNA by TUNEL assay at 24 hours (FIG. 31, Panel E), many of the “reduced genes” could reflect DNA fragmentation as part of the apoptotic process and digestion to mononucleosomes. Among the group of genes whose expression was most reduced were MYC and its targets (FIGS. 33B, 36C). The top 100 most TCIP1-reduced genes were examined using ChIP-seq data of human transcription factors in blood cancer cell lines, and found the promoters of TCIP1-inhibited genes highly enriched for MYC binding in multiple datasets (FIG. 33, Panel C). This is significant since many DLBCLs are considered to be MYC-dependent.
Almost all differential genes were increasingly activated at 4 hours compared to negligible effects of the control molecules Neg1 and Neg2 (FIG. 35, Panel B).

[3] = system: MYC, FOXO3, p21, BCL6, BRD4 protein levels in KARPAS422 and SUDHL5; experiment: Western blots of target proteins in DLBCL cells; format: cell-based, human
Protocol: Cells were plated at 1 M/mL and treated with drug at indicated timepoints and doses. 2 M Cells were harvested on ice in RIPA buffer (50 mM Tris-HCl pH 8, 150 mM NaCl, 1% NP-40, 0.1% DOC, 1% SDS, protease inhibitor cocktail (homemade), 1 mM DTT) and 1:200 benzonase (Sigma #E1014) was added and incubated for 20 minutes. After 10 minute centrifugation at 14,000 g and 4° C., the supernatant was collected and protein concentration was measured by Bradford.
as §2
Signaling via NF-kB is known to be repressed by BCL6.

SMILES | EC50 (KARPAS422; KARPAS422 (CHOP-resistant, TP53-mutant DLBCL), 72 hours after addition of drug, read-out: EC50 of cell killing / cell viability) [nM] | EC50 (KARPAS422; KARPAS422, without cell cycle arrest, read-out: EC50 of cell viability without arrest) [nM] | EC50 (DLBCL cells; DLBCL lines including chemotherapy-resistant, TP53-mutant lines, 72 hrs) [nM] | Ternary complex formation (TR-FRET) [1] | Number of genes activated ([2]; 10 nM, 2 hours, KARPAS422) [genes] | Median change of activated genes ([2]; 10 nM, 20 hours, KARPAS422) [fold] | Number of genes increased in expression ([2]; 10 nM, 20 hours, KARPAS422) | Number of genes reduced in expression ([2]; 10 nM, 20 hours, KARPAS422) | Increase of CDKN1A (p21) expression ([2]; RNA-seq, 20 hours, KARPAS422) | Time to FOXO3 activation ([3]; 10 nM) | Effect on BRD4 protein levels ([3]; 20 hours, KARPAS422) | Concentration from which the long isoform of BCL6 protein is induced ([3]; DLBCL cell lines) [nM] | Concentration that activates FOXO3 ([3]; Western blot) [nM] | Concentration from which MYC protein levels are reduced ([3]; Western blot, DLBCL cells) | Time to reduction of MYC protein levels ([3]; after drug addition) [h] | EC50 (KARPAS422; Homo sapiens, KARPAS-422, KARPAS422 (CHOP-resistant, TP53-mutant DLBCL), 72 hours after addition of drug, read-out: EC50 of cell killing / cell viability) [nM] | Cell killing after short exposure and washout (DLBCL cells; 10 nM, 4 hours exposure followed by washout) | BCL6 repressed genes activated ([2]; RNA-seq) [%] | Concentration that regulates genes critical for DLBCL ([3]; Karpas 422, 24 hours, Western blot) [NM]
CNC(=O)COc1cc2cc(Nc3nc(N4CCC(C(=O)NCCCCCCCNC(=O)C[C@@H]5N=C(c6ccc(Cl)cc6)c6c(sc(C)c6C)-n6c(C)nnc65)CC4)ncc3Cl)cc(OC)c2n(C)c1=O [TCIP1] | 1.3 | 1.1 | 1.3 | detected | 140 | 4 | 1,674 genes | 1,364 genes | about 64 fold | within two hours | did not change substantially | 0.5 to 1 | 0.5 | less than 1 nM | ≤ 2 |  |  |  | 
CNC(=O)COc1cc2cc(Nc3nc(N4CCC(C(=O)NCCCCCCCNC(=O)C[C@@H]5N=C(c6ccc(Cl)cc6)c6c(sc(C)c6C)-n6c(C)nnc65)CC4)ncc3Cl)cc(OC)c2n(C)c1=O [JWZ-7-7, (S)-1-(5-chloro-4-((8-methoxy-1-methyl-3-(2-(methylamino)-2-oxoethoxy)-2-oxo-1,2-dihydroquinolin-6-yl)amino)pyrimidin-2-yl)-N-(7-(2-(4-(4-chlorophenyl)-2,3,9-trimethyl-6H-thieno[3,2-f][1,2,4]triazolo[4,3-a][1,4]diazepin-6-yl)acetamido)heptyl)piperidine-4-carboxamide] |  |  |  | showed ternary complex formation |  |  |  |  |  |  |  |  |  |  |  | 1.3 | robust killing | 60 | < 1
